What was measured:
Conditions in all cases: incubation time: 72 h
BT-474 [1] = experiment: normalised response (% of control), CellTiter-Glo; higher = more viable cells (100 = DMSO, 0 = benzethonium chloride kill control)
Summary of the method: (§1)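 Two readouts were taken after 72 h: CellTox Green fluorescence (485/520 nm) first, then CellTiter-Glo luminescence after 10 min at room temperature. Breast cancer cell lines had been seeded as 20 µl suspension into 384-well plates holding compound at 5 concentrations in 10-fold steps across a compound-specific 10,000-fold range. Each value is a normalised signal at a single concentration, with plates scaled to 0.1 % DMSO (100) and a positive kill control (0).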

BT-549 [2] = experiment: as above
Summary of the method: as §1

CAL-120 [3] = experiment: as above
Summary of the method: as §1

CAL-148 [4] = experiment: as above
Summary of the method: as §1

CAL-51 [5] = experiment: as above
Summary of the method: as §1

CAL-85-1 [6] = experiment: as above
Summary of the method: as §1

DU-4475 [7] = experiment: as above
Summary of the method: as §1

HCC1143 [8] = experiment: as above
Summary of the method: as §1

HCC1599 [9] = experiment: as above
Summary of the method: as §1

HCC1937 [10] = experiment: as above
Summary of the method: as §1

HDQ-P1 [11] = experiment: as above
Summary of the method: as §1

Hs578T [12] = experiment: as above
Summary of the method: as §1

MCF-10A = experiment: as above
Summary of the method: as §1

MDA-MB-231 [13] = experiment: as above
Summary of the method: as §1

MDA-MB-436 [14] = experiment: as above
Summary of the method: as §1

MDA-MB-453 [15] = experiment: as above
Summary of the method: as §1

MDA-MB-468 [16] = experiment: as above
Summary of the method: as §1

MFM-223 [17] = experiment: as above
Summary of the method: as §1

SK-BR-3 [18] = experiment: as above
Summary of the method: as §1

BT-474 [19] = experiment: normalised viability (% of control), CellTiter-Blue; higher = more viable cells (100 = DMSO, 0 = benzethonium chloride kill control)
Summary of the method: (§2)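 Vehicle (100) and a positive kill control (0) anchored the normalisation of each plate, and Z'-factor was used for quality control. Breast cancer cell lines in 20 µl suspension were incubated 72 h over compound in 5 µl medium in 384-well plates, followed by CellTiter-Blue at 560/590 nm. The value is normalised viability at a single listed concentration of the series.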

BT-549 [20] = experiment: as above
Summary of the method: as §2

CAL-120 [21] = experiment: as above
Summary of the method: as §2

CAL-148 [22] = experiment: as above
Summary of the method: as §2

CAL-51 [23] = experiment: as above
Summary of the method: as §2

CAL-85-1 [24] = experiment: as above
Summary of the method: as §2

DU-4475 [25] = experiment: as above
Summary of the method: as §2

HCC1143 [26] = experiment: as above
Summary of the method: as §2

HCC1599 [27] = experiment: as above
Summary of the method: as §2

HCC1937 [28] = experiment: as above
Summary of the method: as §2

HDQ-P1 [29] = experiment: as above
Summary of the method: as §2

Hs578T [30] = experiment: as above
Summary of the method: as §2

MDA-MB-231 [31] = experiment: as above
Summary of the method: as §2

MDA-MB-436 [32] = experiment: as above
Summary of the method: as §2

MDA-MB-453 [33] = experiment: as above
Summary of the method: as §2

MDA-MB-468 [34] = experiment: as above
Summary of the method: as §2

MFM-223 [35] = experiment: as above
Summary of the method: as §2

SK-BR-3 [36] = experiment: as above
Summary of the method: as §2

SMILES | normalised response (BT-474 [1]) | normalised response (BT-549 [2]) | normalised response (CAL-120 [3]) | normalised response (CAL-148 [4]) | normalised response (CAL-51 [5]) | normalised response (CAL-85-1 [6]) | normalised response (DU-4475 [7]) | normalised response (HCC1143 [8]) | normalised response (HCC1599 [9]) | normalised response (HCC1937 [10]) | normalised response (HDQ-P1 [11]) | normalised response (Hs578T [12]) | normalised response (MCF-10A) | normalised response (MDA-MB-231 [13]) | normalised response (MDA-MB-436 [14]) | normalised response (MDA-MB-453 [15]) | normalised response (MDA-MB-468 [16]) | normalised response (MFM-223 [17]) | normalised response (SK-BR-3 [18]) | normalised viability (BT-474 [19]) | normalised viability (BT-549 [20]) | normalised viability (CAL-120 [21]) | normalised viability (CAL-148 [22]) | normalised viability (CAL-51 [23]) | normalised viability (CAL-85-1 [24]) | normalised viability (DU-4475 [25]) | normalised viability (HCC1143 [26]) | normalised viability (HCC1599 [27]) | normalised viability (HCC1937 [28]) | normalised viability (HDQ-P1 [29]) | normalised viability (Hs578T [30]) | normalised viability (MDA-MB-231 [31]) | normalised viability (MDA-MB-436 [32]) | normalised viability (MDA-MB-453 [33]) | normalised viability (MDA-MB-468 [34]) | normalised viability (MFM-223 [35]) | normalised viability (SK-BR-3 [36])
Cn1c(Nc2ccc(C(F)(F)F)cc2)nc2cc(Oc3ccnc(-c4ncc(C(F)(F)F)[nH]4)c3)ccc21 [RAF265] (0.1 nM) | 107% | 104% | 99% | 110% | 73.6% | 102% | 107% | 106% | 112% | 102% | 103% | 106% | 107% | 103% | 104% | 118% | 102% | 108% | 110% | 102% | 117% | 86.2% | 95.6% | 94.2% | 87.7% | 105% | 104% | 119% | 99% | 80.2% | 111% | 117% | 104% | 103% | 104% | 96% | 89.5%
CNCc1ccc(-c2[nH]c3cc(F)cc4c3c2CCNC4=O)cc1 [Rucaparib] (1 nM) | 92.6% | 96.9% | 96.3% | 98.2% | 117% | 100% | 99.4% | 94.1% | 98.4% | 97.8% | 97.2% | 102% | 84.6% | 99.1% | 98.5% | 98.2% | 96.8% | 95.9% | 82.4% | 109% | 95.3% | 79.5% | 96.4% | 113% | 88.6% | 111% | 103% | 122% | 108% | 68.1% | 97.4% | 105% | 104% | 95.2% | 110% | 91.6% | 100%
N[C@@H](CSC(c1ccccc1)(c1ccccc1)c1ccccc1)C(=O)O [S-trityl-L-cysteine] (4 nM) | 105% | 96.5% | 106% | 103% | 81% | 101% | 95.7% | 97% | 87.5% | 92% | 103% | 95.5% | 97.6% | 100% | 85.6% | 107% | 101% | 96.9% | 99.6% | 91.1% | 85.8% | 115% | 112% | 91.3% | 122% | 116% | 143% | 108% | 89% | 96.6% | 106% | 104% | 109% | 88.6% | 101% | 105% | 88.2%
CN(N=O)C(=O)N[C@@H](C=O)[C@@H](O)[C@H](O)[C@H](O)CO [Streptozocin] (1 nM) | 98.8% | 102% | 103% | 102% | 80.8% | 94.2% | 95.7% | 105% | 96.4% | 104% | 104% | 106% | 113% | 108% | 104% | 92.1% | 97.5% | 105% | 106% | 81% | 102% | 101% | 111% | 110% | 91.4% | 104% | 99% | 132% | 99.1% | 116% | 103% | 106% | 100% | 111% | 102% | 92.8% | 106%
O=C1CCC(N2C(=O)c3ccccc3C2=O)C(=O)N1 (stereo unspecified) [Thalidomide] (1 nM) | 99.2% | 104% | 99.3% | 96.4% | 93.9% | 100% | 95.1% | 95.5% | 111% | 97.7% | 101% | 98.2% | 104% | 104% | 101% | 96.6% | 98.5% | 98% | 96.8% | 76.9% | 95.2% | 115% | 122% | 86.2% | 109% | 101% | 100% | 104% | 90% | 110% | 106% | 88.7% | 97% | 108% | 105% | 96.1% | 102%
CN[C@@H]1C[C@H]2O[C@@](C)([C@@H]1OC)n1c3ccccc3c3c4c(c5c6ccccc6n2c5c31)C(=O)N[C@H]4O [UCN-01] (1 nM) | 97.5% | 95.5% | 91.5% | 105% | 78.4% | 102% | 109% | 98.7% | 100% | 90.9% | 99% | 98% | 102% | 103% | 100% | 99.8% | 103% | 102% | 109% | 99.2% | 92% | 82.9% | 102% | 98.9% | 87.8% | 128% | 95.7% | 118% | 82.1% | 69.6% | 106% | 92% | 111% | 99.3% | 99.8% | 108% | 104%
Clc1ccc(Nc2nnc(Cc3ccncc3)c3ccccc23)cc1 [Vatalanib] (1 nM) | 101% | 93.2% | 97.3% | 102% | 99.8% | 102% | 104% | 97.1% | 105% | 101% | 103% | 101% | 110% | 99.1% | 98.9% | 103% | 114% | 108% | 111% | 86.8% | 100% | 84.3% | 90.5% | 99.4% | 94.3% | 97.9% | 89.5% | 95.2% | 78.3% | 91% | 99.8% | 87.7% | 125% | 99.8% | 98.8% | 106% | 93.2%
CCC1=C[C@@H]2CN(C1)Cc1c([nH]c3ccccc13)[C@@](C(=O)OC)(c1cc3c(cc1OC)N(C)[C@H]1[C@@](O)(C(=O)OC)[C@H](OC(C)=O)[C@]4(CC)C=CCN5CC[C@]31[C@@H]54)C2 [Vinorelbine] (1 nM) | 97.4% | 106% | 106% | 108% | 102% | 101% | 98.9% | 101% | 107% | 95% | 98.1% | 97.2% | 108% | 107% | 96.6% | 102% | 101% | 96.5% | 95.2% | 104% | 109% | 94.2% | 106% | 98.1% | 98.1% | 102% | 96.5% | 90.2% | 90.8% | 109% | 113% | 93.3% | 101% | 86.9% | 99.3% | 95.6% | 95.2%

From the supplement of paper PMC4862054
